# Reference: patent US5635593A (priority 1995, dated 1997)
# Entries after “also recorded” stand apart in the source; their conditions may differ. Peptide text beside a SMILES is read from it.
# Assays:
# BK1 receptor = target: T1, BK1 receptor (Oryctolagus cuniculus, UniProt P48748); experiment: rabbit aorta in vitro, reversal of des-Arg^9 -BK contraction; set-up: on rabbit aorta (BK1 -receptor) in vitro; from tissue; host or cells: rabbit aorta; details: negative log of molar concentration causing 50% reversal of des-Arg^9 -BK (10^-7 M) contraction
# T1 sequence (P48748 1-352): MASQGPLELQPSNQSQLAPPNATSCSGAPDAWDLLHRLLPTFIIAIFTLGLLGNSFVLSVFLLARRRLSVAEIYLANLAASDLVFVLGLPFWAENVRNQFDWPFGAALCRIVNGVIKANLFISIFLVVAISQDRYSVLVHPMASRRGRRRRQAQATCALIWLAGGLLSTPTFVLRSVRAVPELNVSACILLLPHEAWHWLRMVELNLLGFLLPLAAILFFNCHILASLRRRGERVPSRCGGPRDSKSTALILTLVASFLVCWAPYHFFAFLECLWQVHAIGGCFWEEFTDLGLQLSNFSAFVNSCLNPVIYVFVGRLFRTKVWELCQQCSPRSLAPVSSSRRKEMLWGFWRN
# Experimental: Each antagonist was then added, in a cumulative fashion, on top of the contraction and the negative log of the molar concentration of the antagonist causing a 50% reversal (IC50) of the […] measured.
# BK2 -receptor = target: T2, BK2 -receptor (Rattus norvegicus, UniProt P25023); experiment: rat uterus (RU) in vitro, antagonism of BK; details: for pA2 rat uterus (BK2): against BK
# T2 construct: guinea-pig ileum (GPI), rat uterus (RU) and rabbit jugular vein (RJV); from tissue; host or cells: rat uterus
# T2 sequence (P25023 1-396): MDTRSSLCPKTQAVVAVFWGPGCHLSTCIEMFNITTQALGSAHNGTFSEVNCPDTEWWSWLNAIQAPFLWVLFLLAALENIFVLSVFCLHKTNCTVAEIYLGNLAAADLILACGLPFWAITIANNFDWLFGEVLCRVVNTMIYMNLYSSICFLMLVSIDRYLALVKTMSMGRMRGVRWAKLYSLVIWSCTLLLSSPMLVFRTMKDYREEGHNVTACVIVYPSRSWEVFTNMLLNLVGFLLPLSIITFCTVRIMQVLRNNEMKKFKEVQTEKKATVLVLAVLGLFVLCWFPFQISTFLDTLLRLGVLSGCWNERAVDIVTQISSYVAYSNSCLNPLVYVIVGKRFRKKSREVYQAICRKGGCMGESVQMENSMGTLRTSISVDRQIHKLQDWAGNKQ
# Experimental: Thus, in vitro studies were performed on standard assay systems, namely, guinea-pig ileum (GPI), rat uterus (RU) and rabbit jugular vein (RJV). […] The potency of each compound was assessed as a pA2 value according to the method of Arunlakshana & Schild, Br. J. Pharmacol. Chemother., 14:48-58 (1959). The pA2 can be defined as the negative logarithm of the molar concentration of the antagonist in the presence of which the potency of the agonist is reduced two-fold, i.e., twice the amount of agonist is required to produce a given response in the presence of, than in the absence of, the antagonist. A high potency of antagonism is indicated by a high pA2 value. i.e., a low concentration of antagonist is effective.
# The percentage recovery (% Rec) was also determined for compounds with respect to each assay.
# With respect to duration of activity, it is noted that after exposure to the highest concentration of antagonist, each tissue was washed extensively and then assessed for recovery from the antagonist effect.
# Potency in the rat uterus assay was assessed as described above and pA2 values determined.
SMILES,pA2 rat uterus (BK2) (BK2 -receptor),further results
"CC(C)C[C@H](NC(=O)[C@@H](Cc1ccccc1)NC(=O)[C@H](CS)NC(=O)[C@H](Cc1ccccc1)NC(=O)CNC(=O)[C@@H]1C[C@@H](O)CN1C(=O)[C@@H]1CCCN1C(=O)[C@H](CCCNC(=N)N)NC(=O)[C@H](N)CCCNC(=N)N)C(=O)O [CP-0254, D R--R--P--J--G--F--C--D F--L] (HELM PEPTIDE1{[dR].R.P.[Hyp].G.F.C.[dF].L}$$$$V2.0; N-terminus and C-terminus assumed)",–,BK1 rabbit aorta IC50 (BK1 receptor): 6.4 ± 0.1
"CC(C)C[C@H](NC(=O)[C@@H](Cc1ccccc1)NC(=O)[C@H](CSC1CC(=O)N(CCCCCCN2C(=O)CC(SC[C@H](NC(=O)[C@@H](NC(=O)[C@@H](Cc3c[nH]c4ccccc34)NC(=O)[C@H](Cc3ccc(O)cc3)NC(=O)[C@@H](N)CC(=O)O)C(C)C)C(=O)N[C@H](Cc3c[nH]c4ccccc34)C(=O)N[C@@H](CCCNC(=N)N)C(N)=O)C2=O)C1=O)NC(=O)[C@H](Cc1ccccc1)NC(=O)CNC(=O)[C@@H]1C[C@@H](O)CN1C(=O)[C@@H]1CCCN1C(=O)[C@H](CCCNC(=N)N)NC(=O)[C@H](N)CCCNC(=N)N)C(=O)N[C@@H](CCCNC(=N)N)C(=O)O (some centres unmarked) [CP-0415] (HELM PEPTIDE1{[dR].R.P.[Hyp].G.F.C.[dF].L.R}|PEPTIDE2{D.Y.[dW].V.C.[dW].R.[am]}|CHEM1{[O=C1CC([*:1])C(=O)N1CCCCCCN1C(=O)CC([*:2])C1=O]}$PEPTIDE1,CHEM1,7:R3-1:R1|PEPTIDE2,CHEM1,5:R3-1:R2$$$V2.0)",7.8 ± 0.1,–
"CC(C)C[C@H](NC(=O)[C@@H](Cc1ccccc1)NC(=O)[C@H](CO)NC(=O)[C@H](Cc1ccccc1)NC(=O)CNC(=O)[C@@H]1C[C@@H](O)CN1C(=O)[C@@H]1CCCN1C(=O)[C@H](CS)NC(=O)[C@H](N)CCCNC(=N)N)C(=O)O [CP-0376, D R--C--P--J--G--F--S--D F--L] (HELM PEPTIDE1{[dR].C.P.[Hyp].G.F.S.[dF].L}$$$$V2.0; N-terminus and C-terminus assumed)",–,BK1 rabbit aorta IC50 (BK1 receptor): 4.9 ± 0.3
"CC(C)C[C@H](NC(=O)[C@@H](Cc1ccccc1)NC(=O)[C@H](CO)NC(=O)[C@H](CSC1CC(=O)N(CCCCCCN2C(=O)CC(SC[C@H](NC(=O)CNC(=O)[C@@H]3C[C@@H](O)CN3C(=O)[C@@H]3CCCN3C(=O)[C@H](CCCNC(=N)N)NC(=O)[C@H](N)CCCNC(=N)N)C(=O)N[C@@H](CO)C(=O)N[C@H](Cc3ccccc3)C(=O)N[C@@H](CC(C)C)C(=O)N[C@@H](CCCNC(=N)N)C(=O)O)C2=O)C1=O)NC(=O)CNC(=O)[C@@H]1C[C@@H](O)CN1C(=O)[C@@H]1CCCN1C(=O)[C@H](CCCNC(=N)N)NC(=O)[C@H](N)CCCNC(=N)N)C(=O)N[C@@H](CCCNC(=N)N)C(=O)O (some centres unmarked) [CP-0156] (HELM PEPTIDE1{[dR].R.P.[Hyp].G.C.S.[dF].L.R}|PEPTIDE2{[dR].R.P.[Hyp].G.C.S.[dF].L.R}|CHEM1{[O=C1CC([*:1])C(=O)N1CCCCCCN1C(=O)CC([*:2])C1=O]}$PEPTIDE1,CHEM1,6:R3-1:R1|PEPTIDE2,CHEM1,6:R3-1:R2$$$V2.0)",–,% REC rat uterus (BK2 -receptor; percentage recovery after washing): 75%
"CC(C)C[C@H](NC(=O)[C@@H](Cc1ccccc1)NC(=O)[C@H](CSC1CC(=O)N(CCCCCCN2C(=O)CC(SC[C@H](NC(=O)[C@@H](Cc3c[nH]c4ccccc34)NC(=O)[C@@H](NC(=O)[C@@H](Cc3c[nH]c4ccccc34)NC(=O)[C@H](Cc3ccc(O)cc3)NC(=O)[C@@H](N)CC(=O)O)C(C)C)C(=O)N[C@@H](CCCNC(=N)N)C(N)=O)C2=O)C1=O)NC(=O)[C@H](Cc1ccccc1)NC(=O)CNC(=O)[C@@H]1C[C@@H](O)CN1C(=O)[C@@H]1CCCN1C(=O)[C@H](CCCNC(=N)N)NC(=O)[C@H](N)CCCNC(=N)N)C(=O)N[C@@H](CCCNC(=N)N)C(=O)O (some centres unmarked) [CP-0416] (HELM PEPTIDE1{[dR].R.P.[Hyp].G.F.C.[dF].L.R}|PEPTIDE2{D.Y.[dW].V.[dW].C.R.[am]}|CHEM1{[O=C1CC([*:1])C(=O)N1CCCCCCN1C(=O)CC([*:2])C1=O]}$PEPTIDE1,CHEM1,7:R3-1:R1|PEPTIDE2,CHEM1,6:R3-1:R2$$$V2.0)",8.7 ± 0.2,–
"CC(C)C[C@H](NC(=O)[C@@H]1CCCN1C(=O)[C@H](CO)NC(=O)[C@H](Cc1ccccc1)NC(=O)CNC(=O)[C@@H]1C[C@@H](O)CN1C(=O)[C@@H]1CCCN1C(=O)[C@H](CSC1CC(=O)N(CCCCCCN2C(=O)CC(SC[C@H](NC(=O)[C@H](Cc3ccccc3)NC(=O)CNC(=O)[C@@H]3C[C@@H](O)CN3C(=O)[C@@H]3CCCN3C(=O)[C@H](CCCNC(=N)N)NC(=O)[C@H](N)CCCNC(=N)N)C(=O)N[C@H](Cc3ccccc3)C(=O)N[C@@H](CC(C)C)C(=O)N[C@@H](CCCNC(=N)N)C(=O)O)C2=O)C1=O)NC(=O)[C@@H](N)CCCCN)C(=O)O (some centres unmarked) [CP-0382] (HELM PEPTIDE1{[dR].R.P.[Hyp].G.F.C.[dF].L.R}|PEPTIDE2{K.C.P.[Hyp].G.F.S.P.L}|CHEM1{[O=C1CC([*:1])C(=O)N1CCCCCCN1C(=O)CC([*:2])C1=O]}$PEPTIDE1,CHEM1,7:R3-1:R1|PEPTIDE2,CHEM1,2:R3-1:R2$$$V2.0; N-terminus and C-terminus assumed)",Agonist; also recorded: substantial partial agonism,–
"CC(C)C[C@H](NC(=O)[C@@H](Cc1ccccc1)NC(=O)[C@H](CSC1CC(=O)N(CCCCCCN2C(=O)CC(SC[C@H](N)C(=O)N[C@@H](Cc3ccc(O)cc3)C(=O)N[C@H](Cc3c[nH]c4ccccc34)C(=O)N[C@H](C(=O)N[C@H](Cc3c[nH]c4ccccc34)C(=O)N[C@H](Cc3c[nH]c4ccccc34)C(=O)N[C@@H](CCCNC(=N)N)C(N)=O)C(C)C)C2=O)C1=O)NC(=O)[C@H](Cc1ccccc1)NC(=O)CNC(=O)[C@@H]1C[C@@H](O)CN1C(=O)[C@@H]1CCCN1C(=O)[C@H](CCCNC(=N)N)NC(=O)[C@H](N)CCCNC(=N)N)C(=O)N[C@@H](CCCNC(=N)N)C(=O)O (some centres unmarked) [CP-0411] (HELM PEPTIDE1{[dR].R.P.[Hyp].G.F.C.[dF].L.R}|PEPTIDE2{C.Y.[dW].V.[dW].[dW].R.[am]}|CHEM1{[O=C1CC([*:1])C(=O)N1CCCCCCN1C(=O)CC([*:2])C1=O]}$PEPTIDE1,CHEM1,7:R3-1:R1|PEPTIDE2,CHEM1,1:R3-1:R2$$$V2.0)",7.5 ± 0.1,–
"CC(C)C[C@H](NC(=O)[C@@H](Cc1ccccc1)NC(=O)[C@H](CSC1CC(=O)N(CCCCN2C(=O)CC(SC[C@H](NC(=O)[C@H](Cc3ccccc3)NC(=O)CNC(=O)[C@@H]3C[C@@H](O)CN3C(=O)[C@@H]3CCCN3C(=O)[C@H](CCCNC(=N)N)NC(=O)[C@H](N)CCCNC(=N)N)C(=O)N[C@H](Cc3ccccc3)C(=O)N[C@@H](CC(C)C)C(=O)N[C@@H](CCCNC(=N)N)C(=O)O)C2=O)C1=O)NC(=O)[C@H](Cc1ccccc1)NC(=O)CNC(=O)[C@@H]1C[C@@H](O)CN1C(=O)[C@@H]1CCCN1C(=O)[C@H](CCCNC(=N)N)NC(=O)[C@H](N)CCCNC(=N)N)C(=O)N[C@@H](CCCNC(=N)N)C(=O)O (some centres unmarked) [CP-0209] (HELM PEPTIDE1{[dR].R.P.[Hyp].G.F.C.[dF].L.R}|PEPTIDE2{[dR].R.P.[Hyp].G.F.C.[dF].L.R}|CHEM1{[O=C1CC([*:1])C(=O)N1CCCCN1C(=O)CC([*:2])C1=O]}$PEPTIDE1,CHEM1,7:R3-1:R1|PEPTIDE2,CHEM1,7:R3-1:R2$$$V2.0)",8.2 ± 0.2,–
